Measured values: US20260232578A1, “COMPOSITIONS AND METHODS FOR TRANSMUCOSAL ABSORPTION” (Tonix Pharma Limited, priority 2012, published 2026)
Where a name gives a salt, the structure may show the parent alone. Read-outs that look alike come from different tables or passages of the source.

Key:
in vivo [1] = details: female, beagle, dog, 0.14 mg/kg
Procedure: The protocol was designed as outlined in Table 23.
The method requires a lithium heparinized plasma sample volume of 200 μl. The extraction is a liquid liquid extraction with hexane, and the extracts are injected using an HPLC system and an […] (Applied Biosystems) for the MS/MS detection, with a “Onyx monolithic Phenomenex C18 100×3.0 mm” column.
Concentrations of the samples are calculated using Watson® 7.2.0.03 directly from chromatograms after automatic integration by Analyst® 1.5.1 and expressed as ng/mL. Mean plasma concentrations will be calculated (when calculable, i.e. n>2) using individual concentrations and will be expressed with the corresponding standard deviation value and variation coefficients (when calculable, i.e. n>3) (with CV(%)=(SD/mean)×100). The individual plasma concentrations are tabulated for each dog and scheduled sampling time. Concentrations below the LLOQ are designated as “BLQ.” All BLQ concentrations are substituted by zero for calculation of the descriptive statistics of the concentrations.
Pharmacokinetic analysis is carried out using […]® (Version 4.3 (Thermo Electron Corporation)). An independent model (non compartmental analysis) is used. All BLQ values in the absorption phase are substituted by zero, except for BLQ values between evaluable concentrations, which are treated as missing values, before the calculation of the pharmacokinetic variables. The terminal BLQ values are ignored. The following pharmacokinetic parameters are calculated:
5 non-naive female dogs are used, each dog receiving the test substance by oral administration via nasogastric tube to the stomach (NG) administration, sublingual administration (SL), and by intravenous (IV) administration. There is a “wash-out” period of at least two weeks between each type of administration. Blood samples are drawn as follows:
A single NG dose of 0.14 mg/kg (under a volume of 5 ml/kg and a solution concentration of 0.028 mg/mL) is administered.
After a wash-out period of at least 2 weeks, dogs are sedated using propofol (6.5 mg/kg IV). They will be then given a single sublingual dose of 0.14 mg/kg (under a volume of 0.056 mL/kg and a solution concentration of 2.5 mg/mL).
After a wash-out period of at least 2 weeks, dogs are given a single IV dose of 0.14 mg/kg (under a volume of 1 mL/kg, bolus of approximately 30 sec, and a solution concentration of 0.14 mg/mL).
Blood sampling was designed to minimize animal suffering and to ensure the quality of the biological samples, and was adapted from basic procedures commonly used in studies performed in dogs. Serial blood samples (1 tube of approximately 5 mL) are collected from a jugular vein using vacuum tubes containing lithium heparin. After sealing each tube, the blood samples are manually agitated and stored on ice until centrifugation (within 30 minutes of sampling). The samples are centrifuged at 1500 g, at 4° C., for 10 minutes. The entire resultant plasma obtained from each tube is immediately transferred to suitably labeled polypropylene tubes (3 aliquots of plasma of at least 500 μl each), which are stored upright at approximately −80° C. and protected from light until bioanalysis.
The dogs are fasted overnight before each administration, and food is given to the dogs 4 hours after each treatment. […] In each of the three routes, a potassium phosphate buffer (pH 7.4) is used as the vehicle.
As referred to in Example 4, a study was designed in order to assess the effects of the compositions and methods of the invention. […] The pharmacokinetic parameters were then calculated. A summary of the study design is as follows:
Blood was collected in a fasted condition for all three routes of administration. […] Briefly, the method involved liquid-liquid extraction with hexane. The extracts were injected using an HPLC system and an API4000® (Applied Biosystems) for the MS/MS detection, with an “Onyx monolithic Phenomenex C18 100×3.0 mm” column.

in vivo [2] = details: beagle, dog; for AUC(0-t): AUCt
Procedure: Each dog was sampled at pre-dose before and after Propofol (when possible) and at 5, 10 and 20 minutes post-dose.

[3] = Procedure: The (KH2PO4) solution was prepared according to the current USP (USP 34) (Table 25). Briefly, 50 mL of 0.2 M monobasic potassium phosphate (KH2PO4) was mixed with 39.1 mL of 0.2 M NaOH, and water was added to bring the solution to a final volume of 200 mL. During the test, the change in the pH of the solution also was measured for each addition.
[4] = 25° C.; cited from earlier work
[5] = iv, Cyclobenzaprine plasma concentration
[6] = po, Cyclobenzaprine plasma concentration

CN(C)CCC=C1c2ccccc2C=Cc2ccccc21 [cyclobenzaprine HCl]
AUC(0-inf) (in vivo [1]; iv, AUCinf): 44.9 ± 4.15 ng·h/mL | AUC(0-t) (in vivo [1]; iv, AUCt): 43.5 ng·h/mL | clearance (in vivo [1]; iv, Cl): 52.3 mL/min/kg | concentration at 10 min (in vivo [1]; [5]): 21.1 ng/mL | concentration at 20 min (in vivo [1]; [5]): 17.3 ng/mL | concentration at 0.5 h (in vivo [1]; [5]): 14.3 ng/mL | concentration at 1 h (in vivo [1]; [5]): 9 ng/mL | concentration at 2 h (in vivo [1]; [5]): 6.5 ng/mL | concentration at 3 h (in vivo [1]; [5]): 4.43 ng/mL | concentration at 24 h (in vivo [1]; [5]): 0.1 ng/mL | Cl (Cl/F) (in vivo [1]; po): 1206 mL/min/kg | Kel (in vivo [1]; po): 0.4782 h⁻¹ | CL/F (in vivo [1]; po, Cl (Cl/F)): 1210 mL/min/kg | concentration at 6 h (in vivo [1]; [6]): 0.15 ng/mL | concentration at 8 h (in vivo [1]; [6]): 0.126 ng/mL | concentration at 10 h (in vivo [1]; [6]): 0.112 ng/mL | Vd/F (in vivo [1]; po, Vd (Vd/F)): 151 L/kg | half-life (in vivo [1]; po, t1/2): 86.9 min | AUCt (in vivo [2]): 22.78 ng·h/mL | Bioavailability F % IV without propofol vs sublingual with propofol (in vivo [2]): 197.0% | Cmax (in vivo [2]): 92.23 ng/mL | Tmax (in vivo [2]): 10 min | AUC(0-t) (in vivo [2]): 17.4 ng·h/mL | Cmax (in vivo [2]; Cmax): 75.6 ng/mL | AUCt (in vivo [2]; iv): 11.56 ng·h/mL | Cmax (in vivo [2]; iv): 40.10 ng/mL | Tmax (in vivo [2]; iv): 5 min | AUC(0-t) (in vivo [2]; iv): 7.67 ng·h/mL | Cmax (in vivo [2]; iv, Cmax): 26.8 ng/mL | pH value ([3]; 10 g added to 100 mL Phosphate Buffer Solution pH 7.4): 6.43 | pH value ([3]; 10 g added to 100 mL purified water): 3.31 | pH value ([3]; 15 g added to 100 mL Phosphate Buffer Solution pH 7.4): 6.29 | pH value ([3]; 15 g added to 100 mL purified water): 3.24 | pH value ([3]; 20 g added to 100 mL Phosphate Buffer Solution pH 7.4): 6.21 | pH value ([3]; 20 g added to 100 mL purified water): 3.16 | pH value ([3]; 25 g added to 100 mL Phosphate Buffer Solution pH 7.4): 6.15 | pH value ([3]; 25 g added to 100 mL purified water): 3.11 | pH value ([3]; 30 g added to 100 mL Phosphate Buffer Solution pH 7.4): 6.10 | pH value ([3]; 30 g added to 100 mL purified water): 3.07 | solubility state in solution ([3]; […] at 7.4 containing K2HPO4 or KH2PO4): close to its saturation point | acid dissociation constant (pKa) for the amine group [4]: approximately 8.5
